{"source": "paper PMC8037814", "about": "“Polymorphic Characterization, Pharmacokinetics, and Anti-Inflammatory Activity of Ginsenoside Compound K Polymorphs” (Molecules, 2021)", "key": {"[1]": {"conditions": "cited from earlier work"}, "[2]": {"assay": "Pharmacokinetics after oral administration of CK polymorphs in rats (20 mg/kg)", "type": "in vivo, Sprague-Dawley rats", "conditions": "p.o. 20 mg/kg, individual rats 1-3"}, "[3]": {"system": "carrageenan-induced acute paw inflammation", "assay": "Paw swelling test induced by carrageenan in rats", "type": "in vivo, Sprague-Dawley rats", "design": "paw volume: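 right hind paw volume measured with a plethysmometer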", "conditions": "listed as From III; for paw volume / paw edema: mean±SD of 6 rats; for edema inhibition: versus model group", "procedure,_shortened": "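Rats (six per group, half of each sex) received compound at 10 or 20 mg/kg, suspended in 0.5% CMC-Na, before carrageenan challenge. Paw edema (%) = (Vn − V0)/V0 × 100 over time; inhibitory rate relative to model group, compared by t-test.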"}, "[4]": {"assay": "DSC thermal analysis of CK polymorphs", "type": "physicochemical", "conditions": "20 K/min from 20 to 400 °C, dry nitrogen flow", "experimental": "DSC measurements were performed on a DSC204 Phoenix calorimeter (NETZSCH, Selb, Germany) with a heating rate of 20 K/min from 20 to 400 °C. The dry nitrogen flow was about 50 mL/min. Data were analyzed using NETZSCH analysis software."}, "[5]": {"assay": "Pharmacokinetics after oral administration of CK polymorphs in rats (20 mg/kg)", "type": "in vivo, Sprague-Dawley rats", "conditions": "for Fabs (absolute bioavailability): p.o. 20 mg/kg vs i.v. 10 mg/kg, dose-adjusted AUC ratio; for t1/2z / AUC(0–t) / AUC(0–∞) / CLz/F / Cmax / Vz/F: p.o. 20 mg/kg, 20 mg/kg"}, "[6]": {"conditions": "10 mg/kg p.o. qd 3 days, 3h after carrageenan"}, "[7]": {"conditions": "10 mg/kg p.o. qd 3 days, 4h after carrageenan"}, "[8]": {"conditions": "10 mg/kg p.o. qd 3 days, 5h after carrageenan"}, "[9]": {"conditions": "10 mg/kg p.o. qd 3 days, 6h after carrageenan"}, "[10]": {"conditions": "20 mg/kg p.o. qd 3 days, 3h after carrageenan"}, "[11]": {"conditions": "20 mg/kg p.o. qd 3 days, 4h after carrageenan"}, "[12]": {"conditions": "20 mg/kg p.o. qd 3 days, 5h after carrageenan"}, "[13]": {"conditions": "20 mg/kg p.o. qd 3 days, 6h after carrageenan"}}, "note": "“And” between values parts separate entries of the source, which are not always exact repeats. Identical values can stand only once.", "data": [{"smiles": "CC(C)=CCCC(C)(OC1OC(CO)C(O)C(O)C1O)C1CCC2(C)C1C(O)CC1C3(C)CCC(O)C(C)(C)C3CCC12C", "note": "[CK, 20-O-β-D-glucopyranosyl-20(S)-protopanaxadiol]", "values": [{"measurement": "exposure levels of CK in females versus males", "setting": "[1]; healthy Chinese subjects", "result": "higher"}, {"measurement": "dose-normalized Cmax and t1/2 in females versus males", "setting": "[1]; multiple-dose trial in humans, day 1 and day 15", "result": "significantly higher"}]}, {"smiles": "CC(C)=CCCC(C)(OC1OC(CO)C(O)C(O)C1O)C1CCC2(C)C1C(O)CC1C3(C)CCC(O)C(C)(C)C3CCC12C", "note": "[Form III, 20-O-β-D-glucopyranosyl-20(S)-protopanaxadiol]", "values": [{"measurement": "AUC(0-t)", "setting": "[2]; female rats", "result": "1577.20 µg·h/L and 2580.19 µg·h/L and 1451.26 µg·h/L"}, {"measurement": "AUC(0-∞)", "setting": "[2]; female rats", "result": "1582.68 µg·h/L and 2592.62 µg·h/L and 1513.29 µg·h/L"}, {"measurement": "CLz/F", "setting": "[2]; female rats", "result": "12.64 L/h/kg and 7.71 L/h/kg and 13.22 L/h/kg"}, {"measurement": "Cmax", "setting": "[2]; female rats", "result": "263.79 µg/L and 412.66 µg/L and 388.92 µg/L"}, {"measurement": "Vz/F", "setting": "[2]; female rats", "result": "51.35 L/kg and 34.03 L/kg and 48.90 L/kg"}, {"measurement": "AUC(0-t)", "setting": "[2]; male rats", "result": "656.21 µg·h/L and 1550.66 µg·h/L and 1308.63 µg·h/L"}, {"measurement": "AUC(0-∞)", "setting": "[2]; male rats", "result": "662.23 µg·h/L and 1560.11 µg·h/L and 1328.10 µg·h/L"}, {"measurement": "CLz/F", "setting": "[2]; male rats", "result": "30.20 L/h/kg and 12.82 L/h/kg and 15.06 L/h/kg"}, {"measurement": "Cmax", "setting": "[2]; male rats", "result": "90.26 µg/L and 144.54 µg/L and 218.65 µg/L"}, {"measurement": "t1/2z", "setting": "[2]; male rats", "result": "2.68 h and 3.83 h and 3.40 h"}, {"measurement": "paw volume", "setting": "[3]; 10 mg/kg p.o. qd 3 days, 0h (before carrageenan)", "result": "1.60±0.11"}, {"measurement": "paw edema", "setting": "[3]; [6]", "result": "56.76±9.61", "unit": "%"}, {"measurement": "paw volume", "setting": "[3]; [6]", "result": "2.50±0.06"}, {"measurement": "edema inhibition", "setting": "[3]; [6]", "result": 11.69, "unit": "%"}, {"measurement": "paw edema", "setting": "[3]; [7]", "result": "58.19±18.49", "unit": "%"}, {"measurement": "paw volume", "setting": "[3]; [7]", "result": "2.52±0.17"}, {"measurement": "edema inhibition", "setting": "[3]; [7]", "result": 6.69, "unit": "%"}, {"measurement": "paw edema", "setting": "[3]; [8]", "result": "42.15±12.34", "unit": "%"}, {"measurement": "paw volume", "setting": "[3]; [8]", "result": "2.27±0.14"}, {"measurement": "edema inhibition", "setting": "[3]; [8]", "result": 18.56, "unit": "%"}, {"measurement": "paw edema", "setting": "[3]; [9]", "result": "30.81±14.08", "unit": "%"}, {"measurement": "paw volume", "setting": "[3]; [9]", "result": "2.08±0.15"}, {"measurement": "edema inhibition", "setting": "[3]; [9]", "result": 21.63, "unit": "%"}, {"measurement": "paw volume", "setting": "[3]; 20 mg/kg p.o. qd 3 days, 0h (before carrageenan)", "result": "1.63±0.12"}, {"measurement": "paw edema", "setting": "[3]; [10]", "result": "55.29±13.62", "unit": "%"}, {"measurement": "paw volume", "setting": "[3]; [10]", "result": "2.53±0.25"}, {"measurement": "edema inhibition", "setting": "[3]; [10]", "result": 13.98, "unit": "%"}, {"measurement": "paw edema", "setting": "[3]; [11]", "result": "48.28±7.79", "unit": "%"}, {"measurement": "paw volume", "setting": "[3]; [11]", "result": "2.42±0.13"}, {"measurement": "edema inhibition", "setting": "[3]; [11]", "result": 22.59, "unit": "%"}, {"measurement": "paw edema", "setting": "[3]; [12]", "result": "34.20±12.28", "unit": "%"}, {"measurement": "paw volume", "setting": "[3]; [12]", "result": "2.18±0.15"}, {"measurement": "edema inhibition", "setting": "[3]; [12]", "result": 33.94, "unit": "%"}, {"measurement": "paw edema", "setting": "[3]; [13]", "result": "27.94±7.14", "unit": "%"}, {"measurement": "paw volume", "setting": "[3]; [13]", "result": "2.08±0.08"}, {"measurement": "edema inhibition", "setting": "[3]; [13]", "result": 28.94, "unit": "%"}, {"measurement": "DSC onset of the decomposition endotherm (thermodynamical stability)", "setting": "[4]", "result": 255.9, "unit": "°C"}, {"measurement": "Fabs (absolute bioavailability)", "setting": "[5]; female rats", "result": 5.85, "unit": "%"}, {"measurement": "t1/2z", "setting": "[5]; female rats, individual rats 1-3", "result": "2.82 h and 3.06 h and 2.56 h"}, {"measurement": "AUC(0–t)", "setting": "[5]; female rats, mean ± SD (n = 3)", "result": "1869.55 ± 618.65 µg·h/L and 1869.6 ± 618.65 µg·h/L"}, {"measurement": "AUC(0–∞)", "setting": "[5]; female rats, mean ± SD (n = 3)", "result": "1896.19 ± 604.12 µg·h/L and 1896.2 ± 604.12 µg·h/L"}, {"measurement": "CLz/F", "setting": "[5]; female rats, mean ± SD (n = 3)", "result": "11.19 ± 3.02 L/h/kg and 11.2 ± 3.02 L/h/kg"}, {"measurement": "Cmax", "setting": "[5]; female rats, mean ± SD (n = 3)", "result": "355.12 ± 79.98 µg/L and 355.1 ± 79.98 µg/L"}, {"measurement": "Vz/F", "setting": "[5]; female rats, mean ± SD (n = 3)", "result": "44.76 ± 9.37 L/kg and 44.8 ± 9.37 L/kg"}, {"measurement": "t1/2z", "setting": "[5]; female rats, mean ± SD (n = 3)", "result": "2.81 ± 0.25 h and 2.8 ± 0.25 h"}, {"measurement": "Fabs (absolute bioavailability)", "setting": "[5]; male rats", "result": 3.90, "unit": "%"}, {"measurement": "Vz/F", "setting": "[5]; male rats, individual rats 1-3", "result": "148.10 L/kg and 49.55 L/kg and 83.24 L/kg"}, {"measurement": "AUC(0–t)", "setting": "[5]; male rats, mean ± SD (n = 3)", "result": "1171.83 ± 462.65 µg·h/L and 1171.8 ± 462.65 µg·h/L"}, {"measurement": "AUC(0–∞)", "setting": "[5]; male rats, mean ± SD (n = 3)", "result": "1183.48 ± 466.08 µg·h/L and 1183.5 ± 466.08 µg·h/L"}, {"measurement": "CLz/F", "setting": "[5]; male rats, mean ± SD (n = 3)", "result": "19.36 ± 9.46 L/h/kg and 19.4 ± 9.46 L/h/kg"}, {"measurement": "Cmax", "setting": "[5]; male rats, mean ± SD (n = 3)", "result": "151.15 ± 64.45 µg/L and 151.2 ± 64.45 µg/L"}, {"measurement": "Vz/F", "setting": "[5]; male rats, mean ± SD (n = 3)", "result": "93.63 ± 50.09 L/kg and 93.6 ± 50.1 L/kg"}, {"measurement": "t1/2z", "setting": "[5]; male rats, mean ± SD (n = 3)", "result": "3.3 ± 0.58", "unit": "h"}]}]}
